For series [1], the system named is primary cells from kidney tissues of human ADPKD patients. As to the kind of experiment: Inhibition of three-dimensional cyst formation using primary cells from kidney tissue of human ADPKD patient. Type of series: cell-based. Conditions: 168 h, test compound 30 μM, forskolin + ITS stimulation, 7 days 3D culture, average N=3, read-out: Inhibition rate (%) of cyst formation. As for the experimental part:
Primary cells were isolated from kidney tissues of human ADPKD patients. Under two-dimensions, the isolated cells were cultured for 2 days using DMEM/F-12 (Thermo Fisher Scientific, Inc.) supplemented with 10% FBS. Subsequently, three-dimensional culture was performed for 7 days using 3D Ready Atelocollagen (KOKEN CO., LTD.). During three-dimensional culture, 50 µM forskolin (Sigma-Aldrich Co. LLC) and ITS liquid media supplements (Sigma-Aldrich Co. LLC) were added as stimulating agents to some of the wells to form cysts, and a test compound was added at the final concentration of 30 μM. The test compound was also added to other wells at the final concentration of 30 μM. After 7 days of three-dimensional culture, it was fixed with 4% paraformaldehyde (Thermo Fisher Scientific, Inc.), and nucleic acid staining and cell membrane staining were performed with Hoechst 33342 (Thermo Fisher Scientific, Inc.) and CellLight Plasma Membrane-RFP, BacMam 2.0 (Thermo Fisher Scientific, Inc.). Three-dimensional imaging and volume analysis were performed using Operetta CLS and image analysis software Harmony (PerkinElmer Japan G.K.). The inhibition rate was determined by the following formula.

A further series addresses T1, human NaPi-IIb (Homo sapiens, UniProt O95436).
T1 construct: expressed in transfected cells; host or cells: CHO cells, transient transfection with Fugene HD
T1 sequence (O95436 1-690): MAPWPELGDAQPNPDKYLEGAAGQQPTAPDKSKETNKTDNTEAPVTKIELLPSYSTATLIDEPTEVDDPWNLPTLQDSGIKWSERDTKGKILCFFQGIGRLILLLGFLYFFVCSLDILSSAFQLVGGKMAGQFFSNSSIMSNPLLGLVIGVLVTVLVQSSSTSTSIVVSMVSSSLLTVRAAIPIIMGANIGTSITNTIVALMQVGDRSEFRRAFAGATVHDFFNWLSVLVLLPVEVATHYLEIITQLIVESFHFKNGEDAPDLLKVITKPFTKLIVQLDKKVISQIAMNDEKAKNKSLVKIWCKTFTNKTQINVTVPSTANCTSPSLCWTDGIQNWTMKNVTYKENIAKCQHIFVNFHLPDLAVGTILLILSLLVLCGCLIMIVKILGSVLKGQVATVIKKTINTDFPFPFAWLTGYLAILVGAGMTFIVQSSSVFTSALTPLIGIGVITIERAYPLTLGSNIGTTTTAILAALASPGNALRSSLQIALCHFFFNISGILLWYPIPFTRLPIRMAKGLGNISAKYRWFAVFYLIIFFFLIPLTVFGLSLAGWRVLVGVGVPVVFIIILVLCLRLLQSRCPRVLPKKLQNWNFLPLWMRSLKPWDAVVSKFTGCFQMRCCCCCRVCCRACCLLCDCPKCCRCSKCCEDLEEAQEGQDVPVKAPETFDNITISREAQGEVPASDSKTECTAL
As to the kind of experiment: 33PO4 uptake inhibition in CHO cells expressing human NaPi-IIb. Type of series: cell-based. Conditions: CHO cells transiently expressing human NaPi-IIb, pH 6.5. The protocol: For transient expression, human NaPi-IIb expression plasmids, human PiT1 expression plasmids, human PiT2 expression plasmids, and Fugene HD Transfection (Promega Corporation) were added to CHO cells using a 96-well plate, and the plate was incubated in a C02 incubator for 16 hours. The medium was replaced with buffer A (145 mM choline chloride, 3 mM KCl, 1 mM CaCl2), 0.5 mM MgCl2, 5 mM glucose, 5 mM MES, (pH 6.5)), and then replaced with buffer B (145 mM NaCl, 3 mM KCl, 1 mM CaCl2, 0.5 mM MgCl2, 5 mM glucose, 5 mM MES (pH 6.5)) to which a test compound was added at the final concentration of 0.01, 0.03, 0.1, 0.3, 1, 3, 10, or 30 μM, buffer A to which DMSO was added, or buffer B to which DMSO was added. After a certain time, a 1/20 amount of buffer A containing ^33PO4 (PerkinElmer Japan G. K.) was added and reacted at room temperature. After washing with ice-cooled buffer A, a liquid scintillator (MicroScint™-20, item number 6013621, PerkinElmer Japan G.K.) was added, and the ^33PO4 uptake amount was measured with the top count (Top Count NXT, PerkinElmer Japan G.K.). The inhibition rate was determined by the following formula. Here, a certain time was set to 10 minutes. The phrase “a 1/20 amount of buffer A containing ^33PO4 (PerkinElmer Japan G.K.) was added” refers to “buffer A containing ^33PO4 (PerkinElmer Japan G.K.) was added in an amount of 1/20 of the amount of solution filling the medium”.
The 50% ^33PO4-uptake inhibition concentrations (ICs) (UM) in a cell expressing human NaPi-Ilb, human PiT1, and human PiT2 were calculated from a straight line through two points sandwiching 50% inhibition rate. It should be noted that compounds 1 and 2 were not measured for baman PiT1 and human PiT2, which was indicated as “-” in Table 1.

Series [2] has as its system pcy mice (naturally occurring PKD model). Put plainly: Suppression of increase in renal volume and decrease in renal function in pcy mice. Type of series: in vivo, mouse. Conditions: compared to tolvaptan. The protocol:
The pcy mice, a naturally occurring PKD model, were used to evaluate the effects of tolvaptan and compound 4 in Test Example 1 on (a) renal volume, (b) blood urea nitrogen (UN) concentration, (c) body weight, and (d) urine volume in pcy mice.
The pcy mice (5 weeks of age at the start of this test) were grouped into 3 groups of 13 mice each. Compound 4 or tolvaptan was administered to each of the test compound administration groups. The administration period was 5 weeks. Compound 4 was administered subcutaneously once daily and tolvaptan was administered subcutaneously at a weekly pace. Compound 4 was administered at 33-40 mg/kg per dose and tolvaptan was administered at 25-30 mg/kg per dose. Compound 4 and tolvaptan were administered after dissolved in 50% DMSO/50% glycerol. A group of mice of the parental line was provided as a normal control group (Normal Control) (N=7). The 50% DMSO/50% glycerol was administered to the normal control group and the Vehicle group of pcy mice at 1 mL/kg.
The left renal volume (renal volume (mL)) of mice was calculated by the following formula using echography 5 weeks after the start of administration of the test compound, as shown in FIG. 3a.
After that, blood was collected from the abdominal vena cava, plasma was collected, and euthanasia treatment was performed. Blood urea nitrogen (UN) concentration (Plasma UN (mg/L)) was measured using L-type Waco UN (Fujifilm Wako Pure Chemical Corporation), as shown in FIG. 3b.
In addition, the body weight (Body weight (g)) of mice was measured every 7 days after the start of administration of the test compound, as shown in FIG. 3c. Furthermore, the volume of urine (Urine volume (mL/day)) was calculated from the specific gravity and measured weight of urine 5 weeks after the start of administration of the test compound, as shown in FIG. 3d.

As for `CCCN([C@H]1CC[C@H](C(=O)[O-])CC1)S(=O)(=O)c1cccc(C(=O)Nc2sc3c(c2C(=O)Nc2ccc(CCCc4ccc(C(=O)[O-])cc4)cc2)CCCC3)c1.[Na+].[Na+]` [Compound 4, Disodium; 4-[3-[4-[[2-[[3-[(4-carboxylatocyclohexyl)-propylsulfamoyl]benzoyl]ami-no]-4,5,6,7-tetrahydro-1-benzothiophene-3-carbonyl]amino]phenyl]pro-pyl]benzoic acid], in series [1], the inhibition at 30 µM is 94.4%. The IC50 on human NaPi-IIb was determined as 31 nM. Moreover, the “Body weight (weight loss)” value in series [2] (5 weeks administration) is recorded as “less weight loss”. Besides, the Urine volume result in series [2] (5 weeks after start of administration) was “no increase in urine volume”. Further, the “Suppression effect on increase in renal volume” value in series [2] (33-40 mg/kg s.c. once daily, 5 weeks, left renal volume by echography) was “same degree of suppression effects”. The “Suppression effect on decrease in renal function (blood urea nitrogen)” value in series [2] (33-40 mg/kg s.c. once daily, 5 weeks, plasma UN) is on record as “same degree of suppression effects”.

For the origin of these results see US20250302833A1, “PHARMACEUTICAL COMPOSITION FOR TREATING OR PREVENTING CYSTIC DISEASE” (CHUGAI SEIYAKU KABUSHIKI KAISHA, priority 2022, published 2025).
